Results on 18 compounds are retold here after ChEMBL document CHEMBL4732192, “Discovery and optimization of a novel CNS penetrant series of mGlu PAMs based on a 1,4-thiazepane core with in vivo efficacy in a preclinical Parkinsonian model” (Bioorg Med Chem Lett, 2021).

The structures appear in SMILES notation. pEC50, pIC50: −log10 of the molar value. ≈ marks a conversion by molar mass, not a printed value.

Data set [1] deals with Metabotropic glutamate receptor 4 (Rattus norvegicus, UniProt P31423). The data set is described as follows: Positive allosteric modulation of rat mGlu4 receptor expressed in HEK293 cells co- expressing GIRK channel by thallium mobilization assay. It is filed as cell-based.
Metabotropic glutamate receptor 4, sequence (P31423 whole entry): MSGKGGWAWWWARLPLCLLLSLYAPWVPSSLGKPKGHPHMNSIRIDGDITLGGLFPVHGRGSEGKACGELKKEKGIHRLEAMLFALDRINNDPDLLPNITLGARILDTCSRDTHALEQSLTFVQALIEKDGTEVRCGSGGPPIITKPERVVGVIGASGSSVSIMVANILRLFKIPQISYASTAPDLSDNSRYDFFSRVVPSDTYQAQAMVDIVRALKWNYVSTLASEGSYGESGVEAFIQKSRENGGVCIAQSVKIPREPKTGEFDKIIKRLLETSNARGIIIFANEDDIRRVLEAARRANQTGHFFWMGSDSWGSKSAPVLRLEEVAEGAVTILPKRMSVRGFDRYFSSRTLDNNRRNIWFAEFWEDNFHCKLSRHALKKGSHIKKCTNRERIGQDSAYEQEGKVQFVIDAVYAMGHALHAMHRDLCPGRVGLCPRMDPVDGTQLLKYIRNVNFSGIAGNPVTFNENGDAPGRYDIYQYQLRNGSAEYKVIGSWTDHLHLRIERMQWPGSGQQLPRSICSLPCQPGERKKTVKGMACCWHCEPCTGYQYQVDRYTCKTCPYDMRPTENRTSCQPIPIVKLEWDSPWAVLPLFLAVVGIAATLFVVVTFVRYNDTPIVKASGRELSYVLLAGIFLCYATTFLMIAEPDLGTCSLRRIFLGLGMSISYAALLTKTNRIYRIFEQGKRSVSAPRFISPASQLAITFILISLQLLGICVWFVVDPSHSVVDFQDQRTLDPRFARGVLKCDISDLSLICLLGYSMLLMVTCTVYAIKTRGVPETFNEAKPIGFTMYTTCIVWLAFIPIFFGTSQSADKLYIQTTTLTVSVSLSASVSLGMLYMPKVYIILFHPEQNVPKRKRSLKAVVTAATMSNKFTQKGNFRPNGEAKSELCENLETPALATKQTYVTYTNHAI
Data set [2] concerns the target Metabotropic glutamate receptor 4 (Rattus norvegicus) (UniProt P31423). Description: Positive allosteric modulation of rat mGlu4 receptor expressed in HEK293 cells co- expressing GIRK channel by thallium mobilization assay relative to control. The data set is classed as cell-based.
The test system of data set [3] is Rattus norvegicus. Description: Reversal of haloperidol-induced catalepsy in ip dosed Sprague-Dawley rat assessed as reduction in catalepsy measured after 15 mins relative to untreated control. It is filed as functional. To be noted: 0.25 h.
For data set [4], the system named is Rattus norvegicus. The data set is described as follows: Reversal of haloperidol-induced catalepsy in ip dosed Sprague-Dawley rat assessed as latency time for withdrawl measured after 15 mins (reference value: 49.8 sec). The data set is classed as functional. To be noted: 0.25 h.
Data set [5] is described as follows: Kinetic solubility of compound. It is filed as physicochemical. The conditions noted are these: read-out: Kinetic_solubility.
Data set [6] in a line: Protein binding in rat plasma assessed as unbound fraction. It is filed as ADME, cell-free.
A short description of data set [7]: Protein binding in human plasma assessed as unbound fraction. It is filed as ADME, cell-free.
A short description of data set [8]: Protein binding in rat brain assessed as unbound fraction. It is filed as ADME, tissue-based.
The nature of data set [9]: Ratio of drug level in rat brain to plasma assessed as permeability coefficient at 0.2 mg/kg, iv. The data set is classed as ADME, organism-based.
A short description of data set [10]: Ratio of drug level in rat brain to plasma assessed as unbound permeability coefficient at 0.2 mg/kg, iv. The data set is classed as ADME, organism-based. To be noted: read-out: K(p,uu,brain).
Data set [11] deals with Metabotropic glutamate receptor 1 (Rattus norvegicus, UniProt P23385). Description: Displacement of [3H]quisqualate from mGluR1 from rat brain incubated for 60 mins by radiometric scintillation counting analysis. It is filed as tissue-based.
Data set [12] deals with Metabotropic glutamate receptor 2 (Homo sapiens, UniProt Q14416). Description: Displacement of [3H]LY341495 from full length human recombinant mGluR2 expressed in Chem-1 cells incubated for 60 mins by radiometric scintillation counting analysis. It is filed as cell-based.
Metabotropic glutamate receptor 2, sequence (Q14416 whole entry): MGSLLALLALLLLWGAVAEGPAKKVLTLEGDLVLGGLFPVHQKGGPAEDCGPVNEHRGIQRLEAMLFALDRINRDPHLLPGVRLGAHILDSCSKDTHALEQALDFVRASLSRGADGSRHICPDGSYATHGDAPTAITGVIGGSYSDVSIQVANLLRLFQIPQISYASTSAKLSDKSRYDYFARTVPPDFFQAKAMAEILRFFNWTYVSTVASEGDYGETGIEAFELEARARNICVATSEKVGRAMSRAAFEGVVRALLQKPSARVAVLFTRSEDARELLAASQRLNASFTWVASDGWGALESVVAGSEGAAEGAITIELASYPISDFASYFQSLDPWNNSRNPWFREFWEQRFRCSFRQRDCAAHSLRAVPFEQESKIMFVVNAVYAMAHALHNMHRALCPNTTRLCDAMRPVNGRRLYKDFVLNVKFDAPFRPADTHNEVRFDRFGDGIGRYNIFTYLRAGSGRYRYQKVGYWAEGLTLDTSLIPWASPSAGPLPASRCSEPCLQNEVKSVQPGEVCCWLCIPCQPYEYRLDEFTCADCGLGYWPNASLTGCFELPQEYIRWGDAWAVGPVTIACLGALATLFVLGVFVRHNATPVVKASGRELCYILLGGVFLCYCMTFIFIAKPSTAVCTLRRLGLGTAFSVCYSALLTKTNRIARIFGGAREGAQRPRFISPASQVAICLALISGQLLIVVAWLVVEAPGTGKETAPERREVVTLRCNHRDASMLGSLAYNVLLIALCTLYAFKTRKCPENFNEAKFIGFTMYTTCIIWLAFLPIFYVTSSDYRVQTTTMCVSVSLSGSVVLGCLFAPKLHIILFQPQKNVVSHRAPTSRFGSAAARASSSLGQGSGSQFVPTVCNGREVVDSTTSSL
The target of data set [13] is Metabotropic glutamate receptor 3 (Homo sapiens, UniProt Q14832). The data set is described as follows: Binding affinity to mGlu3 (unknown origin).
Metabotropic glutamate receptor 3, sequence (Q14832 whole entry): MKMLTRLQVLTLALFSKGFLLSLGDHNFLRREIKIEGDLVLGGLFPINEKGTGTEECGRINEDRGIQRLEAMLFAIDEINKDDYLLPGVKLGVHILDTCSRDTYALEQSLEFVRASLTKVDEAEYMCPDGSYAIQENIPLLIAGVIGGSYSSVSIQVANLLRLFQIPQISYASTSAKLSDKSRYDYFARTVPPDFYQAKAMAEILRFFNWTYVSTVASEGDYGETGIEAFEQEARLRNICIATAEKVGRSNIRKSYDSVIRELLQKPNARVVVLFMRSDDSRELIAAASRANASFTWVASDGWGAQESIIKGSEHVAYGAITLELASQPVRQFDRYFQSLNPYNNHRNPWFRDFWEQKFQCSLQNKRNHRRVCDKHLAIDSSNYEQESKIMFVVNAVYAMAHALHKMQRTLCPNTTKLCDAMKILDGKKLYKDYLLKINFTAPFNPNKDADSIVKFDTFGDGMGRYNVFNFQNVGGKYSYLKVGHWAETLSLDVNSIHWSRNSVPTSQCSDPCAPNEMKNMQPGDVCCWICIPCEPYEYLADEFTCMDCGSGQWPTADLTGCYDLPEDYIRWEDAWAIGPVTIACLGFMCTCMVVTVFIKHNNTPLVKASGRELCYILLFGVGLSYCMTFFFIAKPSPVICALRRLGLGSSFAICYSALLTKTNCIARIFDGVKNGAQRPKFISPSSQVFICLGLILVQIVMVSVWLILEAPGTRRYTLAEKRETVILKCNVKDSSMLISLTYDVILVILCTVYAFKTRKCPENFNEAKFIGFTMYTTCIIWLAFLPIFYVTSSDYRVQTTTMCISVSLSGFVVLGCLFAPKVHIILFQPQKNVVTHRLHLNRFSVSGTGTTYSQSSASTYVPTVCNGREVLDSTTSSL
The target in data set [14] is Metabotropic glutamate receptor 5 (Homo sapiens, UniProt P41594). Description: Binding affinity to mGlu5 (unknown origin).
Metabotropic glutamate receptor 5, sequence (P41594 whole entry): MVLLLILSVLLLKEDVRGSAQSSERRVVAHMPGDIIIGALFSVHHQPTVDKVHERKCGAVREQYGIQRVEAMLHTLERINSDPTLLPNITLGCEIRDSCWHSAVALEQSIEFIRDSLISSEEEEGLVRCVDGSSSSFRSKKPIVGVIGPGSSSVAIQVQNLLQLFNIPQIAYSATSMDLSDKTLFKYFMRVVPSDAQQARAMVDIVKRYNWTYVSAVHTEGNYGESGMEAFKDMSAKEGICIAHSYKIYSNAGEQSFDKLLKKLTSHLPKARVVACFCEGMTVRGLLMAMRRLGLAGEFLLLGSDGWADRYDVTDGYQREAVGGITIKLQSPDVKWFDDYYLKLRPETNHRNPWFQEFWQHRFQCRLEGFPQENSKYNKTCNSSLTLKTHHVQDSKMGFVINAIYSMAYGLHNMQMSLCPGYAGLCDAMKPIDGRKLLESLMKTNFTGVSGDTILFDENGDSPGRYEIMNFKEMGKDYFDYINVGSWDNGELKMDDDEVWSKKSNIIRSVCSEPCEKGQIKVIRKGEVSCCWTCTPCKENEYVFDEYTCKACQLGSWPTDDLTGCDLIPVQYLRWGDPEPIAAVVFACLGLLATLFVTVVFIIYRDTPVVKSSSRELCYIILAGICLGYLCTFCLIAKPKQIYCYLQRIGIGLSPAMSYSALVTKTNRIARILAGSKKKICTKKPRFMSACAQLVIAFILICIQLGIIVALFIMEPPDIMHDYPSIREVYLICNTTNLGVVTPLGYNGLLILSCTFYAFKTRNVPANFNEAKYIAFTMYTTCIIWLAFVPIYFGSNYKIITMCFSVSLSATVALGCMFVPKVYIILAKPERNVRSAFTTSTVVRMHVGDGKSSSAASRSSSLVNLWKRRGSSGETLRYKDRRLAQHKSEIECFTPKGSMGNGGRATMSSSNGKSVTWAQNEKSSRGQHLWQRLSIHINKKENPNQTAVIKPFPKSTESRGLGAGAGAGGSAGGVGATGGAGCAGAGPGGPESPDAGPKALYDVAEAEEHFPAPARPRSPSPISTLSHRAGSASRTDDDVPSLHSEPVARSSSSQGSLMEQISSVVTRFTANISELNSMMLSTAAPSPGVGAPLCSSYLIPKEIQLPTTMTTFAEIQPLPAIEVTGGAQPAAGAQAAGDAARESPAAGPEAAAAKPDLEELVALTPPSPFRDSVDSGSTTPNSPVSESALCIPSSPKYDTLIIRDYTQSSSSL
For data set [15], the target named is Metabotropic glutamate receptor 7 (Homo sapiens, UniProt Q14831). Description: Binding affinity to mGlu7 (unknown origin).
Metabotropic glutamate receptor 7, sequence (Q14831 whole entry): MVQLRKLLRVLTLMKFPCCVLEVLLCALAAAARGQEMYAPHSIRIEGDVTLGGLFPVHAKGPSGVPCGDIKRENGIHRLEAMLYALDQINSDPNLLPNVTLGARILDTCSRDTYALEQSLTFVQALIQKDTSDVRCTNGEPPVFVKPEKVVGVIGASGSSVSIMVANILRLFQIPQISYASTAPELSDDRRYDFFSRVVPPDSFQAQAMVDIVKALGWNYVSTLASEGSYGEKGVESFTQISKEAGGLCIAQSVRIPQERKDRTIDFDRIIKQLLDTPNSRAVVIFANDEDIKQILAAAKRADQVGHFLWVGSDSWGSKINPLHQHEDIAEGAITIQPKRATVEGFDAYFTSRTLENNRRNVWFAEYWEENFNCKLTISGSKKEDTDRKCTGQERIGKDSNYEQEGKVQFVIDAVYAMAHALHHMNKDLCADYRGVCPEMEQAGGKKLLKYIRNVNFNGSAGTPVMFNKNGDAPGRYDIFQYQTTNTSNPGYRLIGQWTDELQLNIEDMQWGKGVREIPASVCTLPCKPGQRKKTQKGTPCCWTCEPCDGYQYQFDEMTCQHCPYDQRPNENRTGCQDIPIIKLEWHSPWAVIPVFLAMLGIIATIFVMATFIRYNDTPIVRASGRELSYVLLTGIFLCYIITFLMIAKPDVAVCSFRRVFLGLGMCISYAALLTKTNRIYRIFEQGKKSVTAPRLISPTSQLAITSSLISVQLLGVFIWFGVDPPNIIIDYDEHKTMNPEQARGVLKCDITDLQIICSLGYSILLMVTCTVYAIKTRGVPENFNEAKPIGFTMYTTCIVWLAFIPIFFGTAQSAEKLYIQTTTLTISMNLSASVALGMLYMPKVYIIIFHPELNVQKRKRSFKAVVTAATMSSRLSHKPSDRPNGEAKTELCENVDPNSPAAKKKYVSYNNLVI
Data set [16] deals with Rattus norvegicus. The data set is described as follows: Reversal of haloperidol-induced catalepsy in Sprague-Dawley rat assessed as reduction in catalepsy at 3 mg/kg, ip and measured after 15 mins relative to untreated control. It is filed as functional. To be noted: 0.25 h.
The subject of data set [17] is Rattus norvegicus. The data set is described as follows: Reversal of haloperidol-induced catalepsy in Sprague-Dawley rat assessed as reduction in catalepsy at 10 mg/kg, ip and measured after 15 mins relative to untreated control. The conditions noted are these: 0.25 h. The data set is classed as functional.
For data set [18], the system named is Rattus norvegicus. The data set is described as follows: Reversal of haloperidol-induced catalepsy in Sprague-Dawley rat assessed as reduction in catalepsy at 30 mg/kg, ip and measured after 15 mins relative to untreated control. The data set is classed as functional. The conditions noted are these: 0.25 h.
For data set [19], the system named is Rattus norvegicus. Description: Reversal of haloperidol-induced catalepsy in Sprague-Dawley rat assessed as latency time for withdrawl at 3 mg/kg, ip and measured after 15 mins (reference value: 49.8 sec). The data set is classed as functional. The conditions noted are these: 0.25 h.
Data set [20] relates to Rattus norvegicus. Description: Reversal of haloperidol-induced catalepsy in Sprague-Dawley rat assessed as latency time for withdrawl at 10 mg/kg, ip and measured after 15 mins (reference value: 49.8 sec). The conditions noted are these: 0.25 h. The data set is classed as functional.
Data set [21] relates to Rattus norvegicus. Description: Reversal of haloperidol-induced catalepsy in Sprague-Dawley rat assessed as latency time for withdrawl at 30 mg/kg, ip and measured after 15 mins (reference value: 49.8 sec). It is filed as functional. The conditions noted are these: 0.25 h.
Data set [22] concerns Rattus norvegicus. The data set is described as follows: Reversal of haloperidol-induced catalepsy in Sprague-Dawley rat administered intraperitoneally and measured after 15 mins. The conditions noted are these: dose 3-30 mg/kg. The data set is classed as functional, organism-based.
[23] abbreviates: filed as positive allosteric modulator.

Metabotropic glutamate receptor 4 (Rattus norvegicus), sequence (P31423 whole entry): as the sequence (P31423 whole entry) above

As to `O=C1CCSC[C@@H](C(=O)Nc2cc(F)cc(Br)c2)N1`, the pEC50 in data set [1] was 6.45. This compound came in with a %max in data set [2] (setting [23]) of 101%.

Compound `O=C1CCSC[C@@H](C(=O)Nc2cc(F)cc(F)c2)N1` showed a negative logarithm of the EC50 (pEC50) in data set [1] of 5.05. The compound further showed a %max in [2] (setting [23]) of 102%.

Consider `O=C1CCSC[C@H](C(=O)Nc2cccc(Br)c2)N1`, for which the negative logarithm of the EC50 (pEC50) in data set [1] is less than 4.52.

`O=C1CCSC[C@@H](C(=O)Nc2cc(F)cc(Cl)c2)N1`: the negative logarithm of the EC50 (pEC50) in data set [1] was 6.56. Moreover, in [2] (setting [23]), the %max is 112%.

For `Fc1ccc(Nc2n[nH]c3cccnc23)cc1Cl`, in the data set with Rattus norvegicus [3], the “inhibition (INH)” value came out at 64%. In addition, the Time in the data set with Rattus norvegicus [4] was determined as 17.9 s.

For `O=C(NC1CC(F)(F)C1)c1nsc2cc(Nc3n[nH]c4cccnc34)ccc12`, the solubility kinetic in data set [5] was determined as 0.9 µM (≈ 0.36 µg/mL).

Regarding `O=C1CCSC[C@@H](C(=O)Nc2cc(F)cc(I)c2)N1`, in data set [1], the pEC50 is 6.25. Besides, the %max in data set [2] (setting [23]) turned out to be 102%.

Take `O=C1CCSC[C@@H](C(=O)Nc2cc(Br)cc(Br)c2)N1`: the pEC50 in data set [1] was 7.46. The %max in data set [2] (setting [23]) was 97%. Besides, the fraction unbound in data set [6] was found to be 0.011; in data set [7] it was 0.007; in [8] it was 0.006. The concentration ratio (Kp) in data set [9] was found to be 0.19. The Kp uu in data set [10] worked out at 0.1.

As for `O=C1CCSC[C@H](C(=O)Nc2cc(Cl)cc(Br)c2)N1`, the negative-log EC50 (pEC50) in [1] was 7.19. The compound also gave a %max in data set [2] (setting [23]) of 98%.

As for `O=C1CCSC[C@@H](C(=O)Nc2cc(Cl)cc(Br)c2)N1`, the pEC50 in [1] is 7.48. In [2] (setting [23]), this compound yielded a %max of 108%. The fraction unbound came to 0.018 in [6], 0.011 in data set [7] and 0.028 in data set [8]. In [9], the Kp is 0.45. Besides, the Kp uu in data set [10] was 0.7. Further, the pIC50 in data set [11], in data set [12], in data set [13], in data set [14] and in data set [15] was less than 5.00 throughout. For the same compound, in data set [5], the solubility kinetic came to 6.2 µM (≈ 2.25 µg/mL). Also, the inhibition in vivo at 3 mg/kg with Rattus norvegicus [16] was determined as 26.5%. Further, in the data set with Rattus norvegicus [17], the inhibition in vivo at 10 mg/kg was found to be 42.6%. In addition, in the data set with Rattus norvegicus [18], the inhibition in vivo at 30 mg/kg stood at 55.4%. The Time in the data set on Rattus norvegicus [19] worked out at 36.6 s; in the data set with Rattus norvegicus [20], 28.6 s; with Rattus norvegicus [21] it was 22.2 s. Further, the Activity result in the data set with Rattus norvegicus [22] is “Dose-dependent effect”.

`O=C1CCSC[C@@H](C(=O)Nc2cc(Br)cc(I)c2)N1` had a pEC50 in data set [1] of 6.94. This compound also returned a %max in data set [2] (setting [23]) of 101%.

Consider `O=C1CCSC[C@@H](C(=O)Nc2cccc(Cl)c2)N1`, for which, in [1], the pEC50 was 6.83. In data set [2] (setting [23]), this compound displayed a %max of 120%. The results for the fraction unbound in data set [6], in data set [7] and in data set [8] were 0.02, 0.03 and 0.01, respectively.

With `Cc1cc(C)cc(NC(=O)[C@@H]2CSCCC(=O)N2)c1`, the pEC50 in data set [1] is less than 5.00. In [2], this compound registered a %max of less than 30%.

`Cc1cc(Cl)cc(NC(=O)[C@@H]2CSCCC(=O)N2)c1` gave a pEC50 in data set [1] of 5.96. Also, the %max in data set [2] (setting [23]) worked out at 87%.

For `O=C1CCSC[C@@H](C(=O)Nc2cc(Cl)cc(Cl)c2)N1`, in [1], the pEC50 was 6.56. In data set [2] (setting [23]), the %max was determined as 88%.

As to `O=C1CCSC[C@H](C(=O)Nc2cc(Br)cc(Br)c2)N1`, in [1], the pEC50 was 7.12. The %max in data set [2] (setting [23]) was 104%.

On to `O=C1CCSC[C@@H](C(=O)Nc2cc(C(F)(F)F)cc(C(F)(F)F)c2)N1`, for which, in data set [1], the negative logarithm of the EC50 (pEC50) was 6.02. Further, the %max in [2] (setting [23]) was determined as 102%.

The compound `O=C1CCSC[C@@H](C(=O)Nc2cccc(Br)c2)N1` had a pEC50 in data set [1] of 5.21. This compound came in with a %max in [2] (setting [23]) of 98%.
